Reference: patent publication US20020131997A1, “Method for treating hematologic disorders with water insoluble 20 (S)-camptothecin” (priority 2000, published 2002)

Tests used:
[1] = Stability of 9NC at room temperature, activity determined by HPLC; assay type: physicochemical; details: left at room temperature (25° C.) for 2 months
Description: 9-nitro-20(S)-camptothecin (9NC) was encapsulated in oral dosage of gelules containing 1 mg 9NC by a registered pharmacist. When 9NC is left at room temperature (25° C.) for 2 months, the loss of activity is minimal and has been estimated to be less than 5%+4.6%. Determination of activity has been done by HPLC. The gelules are preferably stored in freezers.

[2] = test system: Ph-negative bcr/abl-negative CML; test: Clinical treatment of patients with Ph-negative bcr/abl-negative CML with oral 9NC gelules; assay type: in vivo, human
Excerpt: (§1) Twenty five patients with hematologic disorders were admitted for the treatment with 9NC. Among them, 9 patients had Philadelphia chromosome (Ph)-negative bcr/abl-negative CML; 8 patients had Philadelphia chromosome (Ph)-positive CML (6 in chronic phase and 2 in accelerated phase); 7 patients had CMML; and one had MDS (RAEB, refractory anemia with excess blasts). Median age of patients was 65 years, ranging from age 29 to age 77. Median white blood cell (WBC) counts was 25.2×10^9/L (range: 4.5-76×10^9/L); and median platelet count was 223×10^9/L (range: 23-1042×10^9/L). Among the patients for the treatment, 14 patients had splenomegaly, with median of 10.5 cms below costal margin (range: 1-13 cms). The 8 patients with Ph-positive CML were previously treated with interferon (IFN). Except for 5 patients, 12 other patients were also previously treated with IFN. Prior to the treatment of the present invention, the patients were off chemotherapy using other anticancer drugs for 2 weeks and recovered from toxicity of that chemotherapy.
(§2) The dosing schedule was designed as the following. The drug product, 9NC gelules, are orally administered into patients for 5 consecutive days every week. Four weeks of treatment with 9NC oral dosage defines one course of treatment. Courses are repeated every 4-6 weeks, depending on patient response and recovery of WBC and platelet counts. The total daily 9NC dose is given in 2 equal divided doses (e.g. 8 a.m. and 8 p.m.).
(§3) The dose of treatment with 9NC was designed to be modified at 5 dose levels according to myelosuppression and extramedullary toxicity. The starting dose schedule at level 0 is 2.0 mg/m^2 9NC orally daily, 5 days every week. Dose level +1 is 2.5 mg/m^2 9NC orally daily, 5 days every week. Dose level +2 is 3.0 mg/m^2 9NC orally daily, 5 days every week. Dose level −1 is 1.5 mg/m^2 9NC orally daily, 5 days every week. Dose level −2 is 1.5 mg/m^2 9NC orally daily, 4 days every week.
(§4) During the course of treatment, if there is no response to 9NC and the patient's hematologic toxicity is less than grade II, the dose level is increase by 1 level. If there is no response to 9NC and the patient's hematologic toxicity is at grade II, the dose level stays at the same level. If there is response to 9NC and the patient's hematologic toxicity is at grade III or IV, the dose level is decreased by 1 level. If there is no response to 9NC and the patient's hematologic toxicity is at grade III or IV, the patient is off the treatment with 9NC.
If low hematologic counts is due to myelosuppression, not disease, subsequent courses can be delayed until WBC >2.0×10^9/L and platelets >80×10^9/L. If low counts are attributed to persistent disease, subsequent courses are started regardless of the counts.
The criteria for response to patients with CML are as follows.
Complete hematologic remission (CHR): Normalization for at least 4 weeks of the bone marrow (less than 5% blasts) and peripheral blood with WBC <10×10^9/L and no peripheral blasts, promyelocytes or myelocytes. This is in addition to disappearance of all signs and symptoms of the disease.
Partial hematologic remission (PHR): CHR except for persistence of immature cells (myelocytes, metamyelocytes), or splenomegaly <50% of pretreatment, or thrombocytosis >450×10^9/L but <50% of pretreatment.
Gelules of 9NC were orally administrated into the 9 patients with Ph-negative bcr/abl-negative CML. The starting dose was 2 mg/m^2 daily for 5 days every week. Doses were adjusted according to myelosuppression and extramedullary toxicity as described above. […] Thus, the objective response (OR) was 6/9.

[3] = test system: Ph-positive CML; test: Clinical treatment of patients with Ph-positive CML with oral 9NC gelules; assay type: in vivo, human; details: of 8 patients
Excerpt: as §1, §2
The dose of treatment with 9NC was designed to be modified at 5 dose levels according to myelosuppression and extramedullary toxicity. The starting dose schedule at level 0 is 2.0 mg/m^2 9NC orally daily, 5 days every week. Dose level +1 is 2.5 mg/m^2 9NC orally daily, 5 days every week. Dose level +2 is 3.0 mg/m^2 9NC orally daily, 5 days every week. Dose level −1 is 1.5 mg/m^2 9NC orally daily, 5 days every week. Dose level −2 is 1.5 mg/m^2 9NC orally daily, 4 days every week. […]

[4] = test system: CMML; test: Clinical treatment of patients with CMML with oral 9NC gelules; assay type: in vivo, human
Excerpt: as §1, §2, §3, §4
If low hematologic counts is due to myelosuppression, not disease, subsequent courses can be delayed until WBC >2.0×10^9/L and platelets >80×10^9/L. If low counts are attributed to persistent disease, subsequent courses are started regardless of the counts. […]

[5] = test system: MDS of the RAEB type; test: Clinical treatment of patient with MDS (RAEB type) with oral 9NC gelules; assay type: in vivo, human; details: one patient, starting dose 2 mg/m^2 daily for 5 days every week
Excerpt: as §1
as §2, with “The total daily 9NC dose is given in 2 equal divided doses (e.g. 8 a.m. and 8 p.m.).” left out

[6] = test system: dogs; test: Toxicology studies in dogs; assay type: in vivo
[7] = test system: mice; test: Toxicology studies in mice; assay type: in vivo
[8] = of 9 patients, oral, starting dose 2 mg/m^2 daily for 5 days every week

CC[C@@]1(O)C(=O)OCc2c1cc1n(c2=O)Cc2cc3c([N+](=O)[O-])cccc3nc2-1 [9NC, 9-nitro-20(S)-camptothecin]
loss of activity [1]: less than 5%+4.6%
spleen response ([2]; in all 8 patients with splenomegaly): at least minor spleen response
patients resistant to the treatment [2, 8]: 2 patients
patients stable [2, 8]: 1 patient
patients with complete remission [2, 8]: 2 patients
patients with partial remission [2, 8]: 4 patients
objective response (OR) ([2]; responders/patients, oral, starting dose 2 mg/m^2 daily for 5 days every week): 6/9
patients who did not show response to the treatment [3]: 6 patients
patients with complete response hematologically and cytogenetically ([3]; oral, starting dose 2 mg/m^2 daily for 5 days every week): 1 patient
patients with minor spleen response ([3]; patient in accelerated phase): 1 patient
patients resistant to the treatment ([4]; of 7 patients): 1 patient
patients with hematologic improvement in WBC or splenomegaly ([4]; of 7 patients): 4 patients
patients with partial remission ([4]; of 7 patients, oral, starting dose 2 mg/m^2 daily for 5 days every week): 2 patients
objective response (OR) ([4]; responders/patients): 6/7
response by MDS criteria [5]: complete remission
primary toxicity [6]: intestinal
tolerability ([6]; 1.0 mg/kg/day, administered for over 2 months): well tolerated
primary toxicity [7]: intestinal
